# Measurements taken from patent publication US8524809B2, “Low odor compositions and methods to attain low odor compositions” (Rohm and Haas Company, priority 2010, dated 2013).
# Columns and labels:
# CALBL = molecular target: T1, CALBL (Moesziomyces antarcticus, UniProt P41365); experiment: Small molecule inhibitors: EA content of latex containing CALBL; format: biochemical; conditions: for Inhibition of CALBL (in words): inhibitor 1.0%
# T1 construct: purchased Novozymes, Bagsvaerd, Denmark Novozym CALB L
# T1 sequence (P41365 26-342): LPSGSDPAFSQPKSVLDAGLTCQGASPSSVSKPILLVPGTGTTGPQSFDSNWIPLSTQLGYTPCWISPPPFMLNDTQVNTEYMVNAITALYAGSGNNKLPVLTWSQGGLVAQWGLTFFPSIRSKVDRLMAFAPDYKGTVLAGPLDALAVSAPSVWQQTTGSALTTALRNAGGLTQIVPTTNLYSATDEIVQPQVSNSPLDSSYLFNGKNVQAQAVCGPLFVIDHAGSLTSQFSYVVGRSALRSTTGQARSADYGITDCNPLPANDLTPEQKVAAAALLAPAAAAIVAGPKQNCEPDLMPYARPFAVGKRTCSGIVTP
# Experimental: (§1) In another embodiment, deactivation of the carboxylesterase enzyme may be achieved by the addition of a small molecule inhibitor, as shown for CALBL and N51032 in Tables 13 and 14, below. […] The small molecule inhibitor and CALBL were added simultaneously at the time t=0. In the following tables, the potential small molecule inhibitors are as follows: […]
# N51032 = experiment: Small molecule inhibitors: EA content of latex containing N51032; format: biochemical
# Experimental: as §1
# [1] = Nucleophilic reagents: aldehyde content in vinyl acetate-acrylic latex; conditions: Rovace 9900 pre-treated 1 week with 50 ppm N51032; reagent 50 ppm, 55° C. 2 hours, then 1 week RT
# Experimental: The latex samples were first treated with a carboxylesterase enzyme (50 ppm of N51032) for 1 week to remove residual esters and also to convert residual vinyl acetate to acetaldehyde (the esterase produces vinyl alcohol, which rearranges to form acetaldehyde). Each sample was then stirred at 55° C. for 2 hours with the reagent shown below in Table 26 (added at a level of 50 ppm), and then left at room temperature for 1 week before evaluating levels of aldehyde in the headspace composition (GC-MS, 33° C.).
# [2] = Esterase and nucleophilic reagent, larger scale vinyl acetate-acrylic latex; conditions: VAc-acrylic latex, 50 ppm N51032 + 50 ppm reagent
# Experimental: The combined effect of carboxylesterase (50 ppm N51032) and nucleophilic reagent (50 ppm in each case) was evaluated in a larger scale vinyl acetate-acrylic latex sample, Table 27, below. The combined addition was made into a 1 gallon reaction vessel, with stirring, after the polymer synthesis and chase, and while the contents were at 50° C. The contents were then allowed to cool and headspace concentrations were analyzed after 1 day at room temperature, and after 5 days at room temperature.
# [3] = AC-261 latex, CALBL 60 ppm, inhibitor 1.0% added simultaneously (Control: none), 0 hr
# [4] = AC-261 latex, CALBL 60 ppm, inhibitor 1.0% added simultaneously (Control: none), 24 hr
# [5] = AC-261 latex, CALBL 60 ppm, inhibitor 1.0% added simultaneously (Control: none), 72 hr
# [6] = AC-261 latex, CALBL 60 ppm, inhibitor 1.0% added simultaneously (Control: none), 168 hr
# [7] = CALBL 6 ppm, inhibitor 0.001%, 0 hr
# [8] = CALBL 6 ppm, inhibitor 0.001%, 120 hr
# [9] = CALBL 6 ppm, inhibitor 0.001%, 168 hr
# [10] = CALBL 6 ppm, inhibitor 0.001%, 384 hr
# [11] = CALBL 6 ppm, inhibitor 0.001%, 480 hr
# [12] = CALBL 6 ppm, inhibitor 0.01%, 0 hr
# [13] = CALBL 6 ppm, inhibitor 0.01%, 120 hr
# [14] = CALBL 6 ppm, inhibitor 0.01%, 168 hr
# [15] = CALBL 6 ppm, inhibitor 0.01%, 384 hr
# [16] = CALBL 6 ppm, inhibitor 0.01%, 480 hr
# [17] = CALBL 6 ppm, inhibitor 0.1%, 0 hr
# [18] = CALBL 6 ppm, inhibitor 0.1%, 120 hr
# [19] = CALBL 6 ppm, inhibitor 0.1%, 168 hr
# [20] = CALBL 6 ppm, inhibitor 0.1%, 384 hr
# [21] = CALBL 6 ppm, inhibitor 0.1%, 480 hr
# [22] = AC-261 latex, N51032 50 ppm, inhibitor 1% added simultaneously (Control: none), 0 hr
# [23] = AC-261 latex, N51032 50 ppm, inhibitor 1% added simultaneously (Control: none), 24 hr
# [24] = AC-261 latex, N51032 50 ppm, inhibitor 1% added simultaneously (Control: none), 72 hr
# [25] = AC-261 latex, N51032 50 ppm, inhibitor 1% added simultaneously (Control: none), 168 hr
# [26] = N51032 5 ppm, inhibitor 0.001%, 0 hr
# [27] = N51032 5 ppm, inhibitor 0.001%, 120 hr
# [28] = N51032 5 ppm, inhibitor 0.001%, 168 hr
# [29] = N51032 5 ppm, inhibitor 0.001%, 384 hr
# [30] = N51032 5 ppm, inhibitor 0.001%, 480 hr
# [31] = N51032 5 ppm, inhibitor 0.01%, 0 hr
# [32] = N51032 5 ppm, inhibitor 0.01%, 120 hr
# [33] = N51032 5 ppm, inhibitor 0.01%, 168 hr
# [34] = N51032 5 ppm, inhibitor 0.01%, 384 hr
# [35] = N51032 5 ppm, inhibitor 0.01%, 480 hr
# [36] = N51032 5 ppm, inhibitor 0.1%, 0 hr
# [37] = N51032 5 ppm, inhibitor 0.1%, 120 hr
# [38] = N51032 5 ppm, inhibitor 0.1%, 168 hr
# [39] = N51032 5 ppm, inhibitor 0.1%, 384 hr
# [40] = N51032 5 ppm, inhibitor 0.1%, 480 hr
smiles,measurement,setting,value
"CC(C)CB(O)O [2MPB, (2-methylpropyl) boronic acid]",EA content,CALBL; [3],105 ppm
same,EA content,CALBL; [4],95 ppm
same,EA content,CALBL; [5],102 ppm
same,EA content,CALBL; [6],104 ppm
same,EA content,CALBL; [7],44
same,EA content,CALBL; [8],32
same,EA content,CALBL; [9],23
same,EA content,CALBL; [10],10
same,EA content,CALBL; [11],8
same,EA content,CALBL; [12],43
same,EA content,CALBL; [13],28
same,EA content,CALBL; [14],24
same,EA content,CALBL; [15],13
same,EA content,CALBL; [16],11
same,EA content,CALBL; [17],43
same,EA content,CALBL; [18],34
same,EA content,CALBL; [19],25
same,EA content,CALBL; [20],15
same,EA content,CALBL; [21],13
same,Inhibition of CALBL (in words),CALBL; CALBL 60 ppm,effective in inhibiting the carboxylesterase enzyme
same,EA content,N51032; [22],117 ppm
same,EA content,N51032; [23],92 ppm
same,EA content,N51032; [24],99 ppm
same,EA content,N51032; [25],79 ppm
same,EA content,N51032; [26],42 ppm
same,EA content,N51032; [27],24 ppm
same,EA content,N51032; [28],22 ppm
same,EA content,N51032; [29],8 ppm
same,EA content,N51032; [30],6 ppm
same,EA content,N51032; [31],37 ppm
same,EA content,N51032; [32],25 ppm
same,EA content,N51032; [33],19 ppm
same,EA content,N51032; [34],6 ppm
same,EA content,N51032; [35],5 ppm
same,EA content,N51032; [36],43 ppm
same,EA content,N51032; [37],34 ppm
same,EA content,N51032; [38],27 ppm
same,EA content,N51032; [39],22 ppm
same,EA content,N51032; [40],20 ppm
"Nc1ccc(CO)cc1 [4ABA, 4-aminobenzyl alcohol]",Acetaldehyde Headspace Concentration,[1],151 ppm
same,Acetone Headspace Concentration,[1],245 ppm
same,Ethanol Headspace Concentration,[1],20 ppm
same,butanal Headspace Concentration,[1],1 ppm
same,l-butanol Headspace Concentration,[1],48 ppm
same,t-butanol Headspace Concentration,[1],257 ppm
"NNc1ccc(C(=O)O)cc1 [4HB, 4-hydrazino benzoic acid]",Acetaldehyde Headspace Concentration,[1],14 ppm
same,Acetone Headspace Concentration,[1],247 ppm
same,Ethanol Headspace Concentration,[1],20 ppm
same,butanal Headspace Concentration,[1],0 ppm
same,l-butanol Headspace Concentration,[1],48 ppm
same,t-butanol Headspace Concentration,[1],258 ppm
"O=C1CC(=O)NC(=O)N1 [B, barbituric acid]",Acetaldehyde Headspace Concentration,[1],0 ppm
same,Acetone Headspace Concentration,[1],287 ppm
same,Ethanol Headspace Concentration,[1],26 ppm
same,butanal Headspace Concentration,[1],0 ppm
same,l-butanol Headspace Concentration,[1],53 ppm
same,t-butanol Headspace Concentration,[1],300 ppm
same,Acetaldehyde Headspace Concentration,[2]; 1 Day,237 ppm
same,Acetone Headspace Concentration,[2]; 1 Day,392 ppm
same,Butyl acetate Headspace Concentration,[2]; 1 Day,1 ppm
same,Ethanol Headspace Concentration,[2]; 1 Day,10 ppm
same,Vinyl acetate Headspace Concentration,[2]; 1 Day,0 ppm
same,butanal Headspace Concentration,[2]; 1 Day,0.4 ppm
same,l-butanol Headspace Concentration,[2]; 1 Day,18 ppm
same,t-butanol Headspace Concentration,[2]; 1 Day,265 ppm
same,Acetaldehyde Headspace Concentration,[2]; 5 Days,140 ppm
same,Acetone Headspace Concentration,[2]; 5 Days,418 ppm
same,Butyl acetate Headspace Concentration,[2]; 5 Days,1 ppm
same,Ethanol Headspace Concentration,[2]; 5 Days,23 ppm
same,Vinyl acetate Headspace Concentration,[2]; 5 Days,0 ppm
same,butanal Headspace Concentration,[2]; 5 Days,0.6 ppm
same,l-butanol Headspace Concentration,[2]; 5 Days,21 ppm
same,t-butanol Headspace Concentration,[2]; 5 Days,285 ppm
"OB(O)C1CCCCC1 [CBA, cyclohexylboronic acid]",EA content,CALBL; [3],102 ppm
same,EA content,CALBL; [4],70 ppm
same,EA content,CALBL; [5],55 ppm
same,EA content,CALBL; [6],24 ppm
same,Inhibition of CALBL (in words),CALBL; CALBL 60 ppm,some ability to inhibit the CALBL enzyme
same,EA content,N51032; [22],117 ppm
same,EA content,N51032; [23],96 ppm
same,EA content,N51032; [24],109 ppm
same,EA content,N51032; [25],79 ppm
"CC(C)(C)CB(O)O [NPB, Neopentylboronic acid]",EA content,CALBL; [3],107 ppm
same,EA content,CALBL; [4],21 ppm
same,EA content,CALBL; [5],0 ppm
same,EA content,CALBL; [6],0 ppm
same,Inhibition of CALBL (in words),CALBL; CALBL 60 ppm,completely ineffective as an inhibitor of CALBL
same,EA content,N51032; [22],116 ppm
same,EA content,N51032; [23],49 ppm
same,EA content,N51032; [24],30 ppm
same,EA content,N51032; [25],6 ppm
"OB(O)c1ccccc1 [PBA, phenylboronic acid]",EA content,CALBL; [3],108 ppm
same,EA content,CALBL; [4],103 ppm
same,EA content,CALBL; [5],116 ppm
same,EA content,CALBL; [6],108 ppm
same,EA content,CALBL; [7],48
same,EA content,CALBL; [8],30
same,EA content,CALBL; [9],25
same,EA content,CALBL; [10],11
same,EA content,CALBL; [11],9
same,EA content,CALBL; [12],44
same,EA content,CALBL; [13],32
same,EA content,CALBL; [14],26
same,EA content,CALBL; [15],15
same,EA content,CALBL; [16],15
same,EA content,CALBL; [17],39
same,EA content,CALBL; [18],35
same,EA content,CALBL; [19],35
same,EA content,CALBL; [20],29
same,EA content,CALBL; [21],29
same,Inhibition of CALBL (in words),CALBL; CALBL 60 ppm,effective in inhibiting the carboxylesterase enzyme
same,EA content,N51032; [22],116 ppm
same,EA content,N51032; [23],116 ppm
same,EA content,N51032; [24],111 ppm
same,EA content,N51032; [25],117 ppm
same,EA content,N51032; [26],46 ppm
same,EA content,N51032; [27],36 ppm
same,EA content,N51032; [28],34 ppm
same,EA content,N51032; [29],22 ppm
same,EA content,N51032; [30],19 ppm
same,EA content,N51032; [31],45 ppm
same,EA content,N51032; [32],41 ppm
same,EA content,N51032; [33],39 ppm
same,EA content,N51032; [34],34 ppm
same,EA content,N51032; [35],34 ppm
same,EA content,N51032; [36],46 ppm
same,EA content,N51032; [37],34 ppm
same,EA content,N51032; [38],41 ppm
same,EA content,N51032; [39],38 ppm
same,EA content,N51032; [40],39 ppm
same,Inhibition of N51032 (in words),"N51032; inhibitor 1%, N51032 50 ppm",effective in inhibiting the carboxylesterase enzyme
"Nc1ccc(N)cc1 [PPD, p-phenylene diamine]",Acetaldehyde Headspace Concentration,[1],0 ppm
same,Acetone Headspace Concentration,[1],279 ppm
same,Ethanol Headspace Concentration,[1],25 ppm
same,butanal Headspace Concentration,[1],0 ppm
same,l-butanol Headspace Concentration,[1],58 ppm
same,t-butanol Headspace Concentration,[1],304 ppm
"CCCCCCCCCCS(=O)(=O)[O-].[Na+] [S-1-DS, Sodium 1-decane-sulfonate]",EA content,CALBL; [3],114 ppm
same,EA content,CALBL; [4],73 ppm
same,EA content,CALBL; [5],36 ppm
same,EA content,CALBL; [6],17 ppm
same,Inhibition of CALBL (in words),CALBL; CALBL 60 ppm,some ability to inhibit the CALBL enzyme
same,EA content,N51032; [22],115 ppm
same,EA content,N51032; [23],73 ppm
same,EA content,N51032; [24],79 ppm
same,EA content,N51032; [25],77 ppm
"NCCNCCNCCN [TET, triethylene tetramine]",Acetaldehyde Headspace Concentration,[1],42 ppm
same,Acetone Headspace Concentration,[1],262 ppm
same,Ethanol Headspace Concentration,[1],23 ppm
same,butanal Headspace Concentration,[1],1 ppm
same,l-butanol Headspace Concentration,[1],64 ppm
same,t-butanol Headspace Concentration,[1],278 ppm
